Toxic doses and inconclusive results are not listed.

For the test, the system named is P388 leukemia ip, CD2F1 mice, survival T/C. Description: NCI In Vivo Anticancer Drug Screen. Data for tumor model P388 Leukemia (intraperitoneal) in CD2F1 (CDF1) mice. The following applies: endpoint: median survival time, higher = longer survival. An outline of the steps:
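Mice carrying the transplanted tumor received test compound or vehicle. Survival was recorded in each group, and the value is the treated-group measurement divided by that of the vehicle-treated control group.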

The mark [1] stands for this setting: dose: 100.0 mg/kg/injection, schedule: Q01DX009 (ip), vehicle: saline.
Setting [2] is: dose: 200.0 mg/kg/injection, schedule: Q01DX009 (ip), vehicle: saline.
The mark [3] stands for this setting: dose: 6.25 mg/kg/injection, schedule: Q01DX009 (ip), vehicle: saline with Tween-80.
[4] abbreviates: dose: 50.0 mg/kg/injection, schedule: Q01DX009 (ip), vehicle: saline with Tween-80.
Where [5] appears, read: dose: 12.5 mg/kg/injection, schedule: Q01DX009 (ip), vehicle: saline with Tween-80.
Setting [6] is: dose: 25.0 mg/kg/injection, schedule: Q01DX009 (ip), vehicle: saline with Tween-80.

For the molecule `Oc1ccc(C(O)C2CCCCN2)cc1O` (stereo not given), the T/C reads like this: (dose: 25.0 mg/kg/injection, schedule: Q01DX009 (ip), vehicle: saline) 99 % of control; (dose: 50.0 mg/kg/injection, schedule: Q01DX009 (ip), vehicle: saline) 108 % of control; under setting [1], 103 % of control; under setting [2], 108 % of control.

Regarding `COC(=O)[C@@]12OC[C@]34[C@H]([C@@H](O)[C@@H]1O)[C@@]1(C)CC(=O)C(O)=C(C)[C@@H]1C[C@H]3OC(=O)[C@H](OC(=O)/C=C(\C)C1(C)CO1)[C@@H]24` (stereo not given in full), the T/C is 119 % of control (dose: 0.12 mg/kg/injection, schedule: Q01DX009 (ip), vehicle: saline + alcohol) and 105 % of control (dose: 0.5 mg/kg/injection, schedule: Q01DX009 (ip), vehicle: saline + alcohol).

As to `O=[N+]([O-])c1ccc(Sc2nccc(Cl)n2)c([N+](=O)[O-])c1`, the T/C by setting is: (dose: 50.0 mg/kg/injection, schedule: Q01DX009 (ip), vehicle: suspension in saline) 100 % of control; under setting [1], 92 % of control; (dose: 100.0 mg/kg/injection, schedule: Q01DX009 (ip), vehicle: suspension in saline) 98 % of control; under setting [2], 104 % of control; (dose: 200.0 mg/kg/injection, schedule: Q01DX009 (ip), vehicle: suspension in saline) 91 % of control.

As for `Nc1nc(N)c2nc(SCc3ccc(Cl)cc3)c(N)nc2n1`, the T/C by setting is: (dose: 15.0 mg/kg/injection, schedule: Q01DX005 (ip), vehicle: Klucel (hydroxypropylcellulose) (HPC)) 88 % of control; (dose: 30.0 mg/kg/injection, schedule: Q01DX005 (ip), vehicle: Klucel (hydroxypropylcellulose) (HPC)) 88 % of control; (dose: 60.0 mg/kg/injection, schedule: Q01DX005 (ip), vehicle: Klucel (hydroxypropylcellulose) (HPC)) 103 % of control; (dose: 120.0 mg/kg/injection, schedule: Q01DX005 (ip), vehicle: Klucel (hydroxypropylcellulose) (HPC)) 88 % of control; (dose: 240.0 mg/kg/injection, schedule: Q01DX005 (ip), vehicle: Klucel (hydroxypropylcellulose) (HPC)) 94 % of control.

For `CCOC(=O)C12CCCCC1OC(=N)C2` (stereo not given), the T/C is 101 % of control (dose: 60.0 mg/kg/injection, schedule: Q01DX005 (ip), vehicle: Klucel + Tween-80); 98 % of control (dose: 120.0 mg/kg/injection, schedule: Q01DX005 (ip), vehicle: Klucel + Tween-80); 99 % of control (dose: 240.0 mg/kg/injection, schedule: Q01DX005 (ip), vehicle: Klucel + Tween-80).

`CC12C(=O)OC(=O)C1CCc1c2ccc2ccccc12` (stereo not given): the T/C by setting is: (dose: 50.0 mg/kg/injection, schedule: Q01DX005 (ip), vehicle: saline with Tween-80) 107 % of control; (dose: 100.0 mg/kg/injection, schedule: Q01DX005 (ip), vehicle: saline with Tween-80) 110 % of control; (dose: 200.0 mg/kg/injection, schedule: Q01DX005 (ip), vehicle: saline with Tween-80) 107 % of control.

Turning to `O=NN(CCCl)C(=O)NC1CCC(=O)NC1=O` (stereo not given), the T/C is 122 % of control (dose: 0.5 mg/kg/injection, schedule: Q04DX003 (ip), vehicle: saline); 154 % of control (dose: 1.0 mg/kg/injection, schedule: Q04DX003 (ip), vehicle: saline); 214 % of control (dose: 2.0 mg/kg/injection, schedule: Q01DX005 (ip), vehicle: saline + alcohol); 117 % of control (dose: 2.0 mg/kg/injection, schedule: Q01DX005 (iv), vehicle: saline + alcohol); 195 % of control (dose: 2.0 mg/kg/injection, schedule: Q04DX003 (ip), vehicle: saline); 118 % of control (dose: 3.13 mg/kg/injection, schedule: Q01DX009 (ip), vehicle: saline with Tween-80). For the same molecule, the T/C reads like this: (dose: 4.0 mg/kg/injection, schedule: Q01DX001 (ip), vehicle: saline + alcohol) 172 % of control; (dose: 4.0 mg/kg/injection, schedule: Q01DX005 (ip), vehicle: saline + alcohol) 315 % of control; (dose: 4.0 mg/kg/injection, schedule: Q01DX005 (iv), vehicle: saline + alcohol) 205 % of control; (dose: 4.0 mg/kg/injection, schedule: Q01DX005 (oral), vehicle: saline + alcohol) 207 % of control; (dose: 4.0 mg/kg/injection, schedule: Q04DX003 (ip), vehicle: saline with Tween-80) 272 % of control; (dose: 4.0 mg/kg/injection, schedule: Q04DX003 (ip), vehicle: saline) 263 % of control. Besides, the T/C was 272 % of control (dose: 6.0 mg/kg/injection, schedule: Q04DX003 (ip), vehicle: saline with Tween-80); 109 % of control under setting [3]; 232 % of control (dose: 8.0 mg/kg/injection, schedule: Q01DX001 (ip), vehicle: saline + alcohol); 158 % of control (dose: 8.0 mg/kg/injection, schedule: Q01DX001 (iv), vehicle: saline + alcohol); 252 % of control (dose: 8.0 mg/kg/injection, schedule: Q01DX005 (iv), vehicle: saline + alcohol); 315 % of control (dose: 8.0 mg/kg/injection, schedule: Q01DX005 (oral), vehicle: saline + alcohol). Moreover, the T/C was 272 % of control (dose: 9.0 mg/kg/injection, schedule: Q04DX003 (ip), vehicle: saline with Tween-80); 87 % of control (dose: 12.5 mg/kg/injection, schedule: Q04DX003 (ip), vehicle: saline with Tween-80); 517 % of control (dose: 13.0 mg/kg/injection, schedule: Q01DX001 (ip), vehicle: saline with Tween-80); 312 % of control (dose: 16.0 mg/kg/injection, schedule: Q01DX001 (ip), vehicle: saline + alcohol); 203 % of control (dose: 16.0 mg/kg/injection, schedule: Q01DX001 (iv), vehicle: saline + alcohol); 187 % of control (dose: 16.0 mg/kg/injection, schedule: Q01DX001 (oral), vehicle: saline + alcohol). Further, under “dose: 16.0 mg/kg/injection, schedule: Q01DX005 (oral), vehicle: saline + alcohol”, the T/C was 119 % of control.

Consider `CCCCCC/C(CC(SCC)c1ccccc1Cl)=N\NC(N)=S` (stereo not given), for which the T/C reads like this: (dose: 60.0 mg/kg/injection, schedule: Q01DX005 (ip), vehicle: saline with Tween-80) 91 % of control; (dose: 120.0 mg/kg/injection, schedule: Q01DX005 (ip), vehicle: saline with Tween-80) 96 % of control; (dose: 240.0 mg/kg/injection, schedule: Q01DX005 (ip), vehicle: saline with Tween-80) 91 % of control.

`Cc1ccc2nc(-c3ccc(CSC(=N)N)cc3)oc(=O)c2c1`: the T/C is, setting by setting: under setting [4], 93 % of control; (dose: 100.0 mg/kg/injection, schedule: Q01DX009 (ip), vehicle: saline with Tween-80) 89 % of control.

Regarding `O=C1C=CC(=O)N1c1ccc([N+](=O)[O-])cc1`, the T/C under setting [5] was 101 % of control, the T/C under setting [6] is 101 % of control and the T/C under setting [4] is 99 % of control.

Turning to `COc1cc2c(cc1OC)C(C)N1CCc3cc(OC)c(OC)cc3C1C2` (stereo not given), the T/C is, setting by setting: (dose: 1.56 mg/kg/injection, schedule: Q01DX009 (ip), vehicle: Klucel (hydroxypropylcellulose) (HPC)) 103 % of control; (dose: 3.12 mg/kg/injection, schedule: Q01DX009 (ip), vehicle: Klucel (hydroxypropylcellulose) (HPC)) 98 % of control.

Take `COC(=O)C(N)CCCCNc1ccc2c(cc1=O)C(NC(C)=O)CCc1cc(OC)c(OC)c(OC)c1-2` (stereo not given): the T/C is, setting by setting: under setting [6], 119 % of control; (dose: 53.0 mg/kg/injection, schedule: Q01DX009 (ip), vehicle: saline) 117 % of control; (dose: 80.0 mg/kg/injection, schedule: Q01DX009 (ip), vehicle: saline) 117 % of control; (dose: 270.0 mg/kg/injection, schedule: Q01DX009 (ip), vehicle: saline) 150 % of control.

Regarding `O/N=C/c1cccc[n+]1Cc1ccccc1`, the T/C (dose: 1.56 mg/kg/injection, schedule: Q01DX009 (ip), vehicle: water) was 102 % of control; the T/C (dose: 3.13 mg/kg/injection, schedule: Q01DX009 (ip), vehicle: water) is 101 % of control; the T/C (dose: 6.25 mg/kg/injection, schedule: Q01DX009 (ip), vehicle: water) is 102 % of control; the T/C (dose: 12.5 mg/kg/injection, schedule: Q01DX009 (ip), vehicle: water) was 102 % of control; the T/C (dose: 25.0 mg/kg/injection, schedule: Q01DX009 (ip), vehicle: water) was 107 % of control.

`CC(C)=CCC1=C(OC2OC(CO)C(O)C(O)C2O)C(=O)c2ccccc2C1=O` (stereo not given): the T/C is 121 % of control under setting [3], 118 % of control under setting [5] and 114 % of control under setting [6].

With `CCCCCCCCCCCC[N+](C)([O-])Cc1ccccc1` (stereo not given), for the setting “dose: 50.0 mg/kg/injection, schedule: Q01DX009 (ip), vehicle: Klucel (hydroxypropylcellulose) (HPC)”, the T/C was 89 % of control.

These data come from PubChem BioAssay AID330 (DTP/NCI, 2004).
